Reference: patent publication US12409172B2, “Dosage regimen” (UNION therapeutics A/S, priority 2023, dated 2025)

Experiments:
[1] = tested on: patients with moderate to severe psoriasis vulgaris; test: Phase 2a study LP0058-1072 (NCT02888236): orismilast 30 mg BID immediate release vs placebo, 16 weeks; format: in vivo
Method: In a phase 2a prospective, randomized, double-blind, placebo-controlled clinical trial (NCT02888236), patients with moderate-to-severe psoriasis were randomized to receive 30 mg twice per day orally in the form of an immediate release (IR) formulation or placebo over 16 weeks.
The modified-release formulation was studied in a clinical trial (LP0058-1442) and administered in a total of 36 healthy volunteers: 18 in part 1, 9 in part 2, and 9 in part 3. Twenty-seven (27) healthy volunteers received a single administration of 30 mg orismilast, and 9 subjects received multiple administrations over a period of 17 days with an up-titration up to a maximum of 60 mg BID. Part 1 of this study was to evaluate the key PK parameters of the new modified-release formulation compared to the reference capsule formulation with immediate release. Orismilast was rapidly absorbed from both formulations with median tmax values of 3.00 hours post-dose for the immediate-release capsule and 2.52 hours post-dose for the modified-release tablet. The individual tmax ranges were approximately 1 to 6 hours post-dose for the immediate-release capsule and 1 to 4 hours post-dose for the modified-release tablet. […]

[2] = tested on: pruritus (itch) associated with atopic dermatitis; test: Phase 2b study in atopic dermatitis (Examples 8, 9): ≥4-point improvement in peak pruritus NRS (PPNRS); format: in vivo, human
Method: The severity of itch (pruritus) due to AD will be assessed using a horizontal 11-point NRS. Patients will be asked to assess their “worst itching due to AD over the past 24 hours” on an NRS anchored by the terms “no itching” (0) and “worst possible itching” (10). The item will be completed at each visit via an application on an electronic device in the clinic or the patient's own electronic device from baseline through Week 20.
The binary secondary efficacy endpoint, 4-point improvement in the peak pruritis numerical rating scale (“responders”), was analysed using the Mantel-Haenszel (MH) test and Fisher's exact tests, comparing the proportions of PPNRS responders in each active treatment group with placebo (intent-to-treat (ITT) population).
The ITT population included all randomized subjects who received at least 1 dose of orismilast. The treatment group assignment was designated according to initial randomization. The ITT population served as the basis for the analysis of efficacy.
PPNRS assesses the severity of itch (pruritus) due to atopic dermatitis using a horizontal 11-point NRS. […]
In FIG. 34, “Observed” or “Obs” refers to all subjects in the ITT Population with a recorded PPNRS score, i.e. if the PPNRS score is missing the value was not imputed. […]

[3] = tested on: TARC and other inflammatory markers in atopic dermatitis skin lesions; test: Skin tape strip biomarkers (OLINK FLEX panel) in the phase 2b atopic dermatitis study (Example 11); format: in vivo, human; details: all treatment arms (20, 30, 40 mg BID)
From the text: Stratum corneum skin samples were collected at the designated time points using the tape stripping method to evaluate biomarker expression levels. Tape stripping is a minimally invasive, nonscarring approach using serial adhesive films to capture the stratum corneum and the upper part of the granular layer.
At Baseline, before administration of study drug, 1 lesional and 1 non-lesional area were identified, and 20 consecutive skin samples were collected from each area. At Week 16, the same procedure was repeated only from the same lesional areas sampled at Baseline.
Skin tape strip samples were taken from lesional and non-lesional skin at baseline and lesional skin at week 16 of patients participating in the phase 2b, double-blinded, placebo-controlled, dose-finding study (20 mg, 30 mg and 40 mg orismilast modified release tablets BID) in patients with moderate-to-severe atopic dermatitis (NCT05469464) described in Example 8. […] The primary objective of the biomarker study was to evaluate the effect of orismilast on a broad spectrum of inflammatory markers in atopic dermatitis skin lesions using tape strips as a non-invasive sampling technology combined with the Olink® technology (OLINK® FLEX panel) using analogous methods to those described in Example 10.
A linear mixed effect model was used on all patients to estimate Ismeans with standard error and adjusted p value.

SMILES: O=C(Cc1c(Cl)c[n+]([O-])cc1Cl)c1ccc(OC(F)F)c2c1OC1(CCS(=O)(=O)CC1)O2 [orismilast, 2-(3,5-dichloro-1-oxidopyridin-1-ium-4-yl)-1-[7-(difluoromethoxy)-1′,1′-dioxospiro[1,3-benzodioxole-2,4′-thiane]-4-yl]ethanone]
- efficacy in psoriasis on each predefined endpoint [1]: confirmed
- patients withdrawn from the trial because of tolerability issues [1]: half
- ≥4-point reduction in itch NRS / PPNRS at week 2 compared to placebo ([2]; all active arms (20, 30, 40 mg BID), MI p<0.05): significant
- ≥4 point reduction in PPNRS at week 16 compared to placebo ([2]; all active arms, subjects having severe itch (PPNRS>7) at baseline, Observed p<0.05 or p<0.1): statistically significant improvement
- TARC in lesional skin at week 16 of treatment [3]: significant reduction
